Results on 4 molecules are retold here after patent US20220267734A1, “HETEROGENEOUS STEM CELL POPULATION, PREPARATION METHOD THEREFOR AND USE THEREOF” (INSTITUTE OF BASIC MEDICAL SCIENCES, CHINESE ACADEMY OF …, priority 2019, published 2022).

The test system of assay [1] is human brain pericytes (HBPs). Nature of the assay: q-PCR gene expression in human brain pericytes under IL-1β with or without DAPT or PDTC. It is filed as cell-based. The conditions noted are these: for gene expression of TIMP-1: among control, IL-1β and IL-1β+inhibitor groups. The text has this: We added interleukin 1β (IL-1β) to Transwell in vitro blood-brain barrier model, and cultured human brain microvascular endothelial cells (HBMVECs), human brain pericytes (HBPs) and human brain astrocytes (HBAs) in vitro. We verified HBMVECs, HBPs and HBAs by immunofluorescence staining. Among them, HBMVEC was stained with the antibody against vWF; HBP was stained with the antibodies against α-SMA and NG2, and vWF and GFAP antibodies; and HBA was stained with GFAP antibody (FIG. 8B). […] HBPs were treated with IL-1β for 30 minutes followed by DAPT treatment for 24 hours, and were subjected to q-PCR quantification. It could be seen from FIG. 8E that, compared with the control group, the gene expression of NOTCH3 in the IL-1β group was increased; compared with the IL-1β group, the gene expression of NOTCH3 in the IL-1β+DAPT group was reduced.

The subject of assay [2] is subpluripotent stem cells. Nature of the assay: IRISIN-induced differentiation into beige adipocytes (UCP1 marker). To be noted: marker protein UCP1 by real-time fluorescence quantification and western blotting, P<0.05. It is filed as cell-based. The text has this: In recent years, a new hormone IRISIN has been discovered, which is a muscle factor secreted after exercise. It is released from the cleavage of its precursor—fibronectin III domain containing 5 (Fndc5), and is involved in the function of the muscles, the cardiovascular system, the nerves and energy metabolism. In the process of energy regulation, IRISIN is a potential regulator in sugar metabolism. In this study, we used the heterogeneous stem cell population of the present invention as seed cells, and used IRISIN to induce them to differentiate into beige adipocytes (see FIG. 9).
The adipose tissue was washed twice with D-Hanks' solution containing dual antibiotics (penicillin, streptomycin), and centrifuged at 800 rpm for 3 min. The lower layer of the liquid after washing was removed with a pipette and the adipose tissue was transferred to a new centrifugation tube of 50 ml. 0.2% collagenase P was added for digestion. The tube was incubated in a shaker at a constant temperature of 37° C. for 30 min. An appropriate amount of D-Hanks' solution was added to the digested adipose tissue, which was then filtered with a […] cell sieve to remove undigested tissue. The mixture was centrifuged at 1500 rpm for 10 min. The upper layer of grease was removed with a pipette, then the supernatant was discarded and the cell pellet was re-suspended in D-Hanks' solution and washed once. […]
Background: Immunoblotting shows a protein as a band on a membrane.

Setting [3] is: IL-1β 30 minutes then inhibitor 24 hours, compared with the IL-1β group.
Setting [4] is: IL-1β group compared with the control group.

In the case of `C[C@H](NC(=O)Cc1cc(F)cc(F)c1)C(=O)N[C@H](C(=O)OC(C)(C)C)c1ccccc1` [DAPT], in assay [1] (setting [3]), the “gene expression of MMP-9” value is on record as “significantly lower”, the “gene expression of NF-κB p65” value is given as “significantly reduced” and the “gene expression of NOTCH3” value is reported as “reduced”. Also, the “gene expression of TIMP-1” value in assay [1] is listed as “did not change much”.
As for `N.S=C(S)N1CCCC1` [PDTC], in assay [1] (setting [3]), the “gene expression of NOTCH3” value is on record as “did not change much”. In assay [1], the “gene expression of TIMP-1” value was “did not change significantly”.
As to “IL-1β: interleukin 1β added to Transwell in vitro blood-brain barrier model”, in assay [1] (setting [4]), the “gene expression of MMP-9” value is “significantly increased”, the “gene expression of NF-κB p65” value is “significantly increased” and the “gene expression of NOTCH3” value is recorded as “increased”.

B1: IRISIN: muscle factor secreted after exercise, released by cleavage of Fndc5 (protein, UniProt Q8NAU1 1-191, looked up)
Irisin: MQAARGGAGRPERPGRPGRGPERERERPPGAGAASPCAAPGLPAGGATIHPGSPSAWPPRARAALRLWLGCVCFALVQADSPSAPVNVTVRHLKANSAVVSWDVLEDEVVIGFAISQQKKDVRMLRFIQEVNTTTRSCALWDLEEDTEYIVHVQAISIQGQSPASEPVLFKTPREAEKMASKNKDEVTMKE
modifications: Irisin
notes: muscle factor secreted after exercise, released by cleavage of Fndc5
B1: the “differentiation into beige adipocytes” value in assay [2] is “induces the differentiation”.
